According to US20150362508A1, “EFFECTOR T CELL RSISTANCE” (BENAROYA RESEARCH INSTITUTE AT VIRGINIA MASON, priority 2013, published 2015):

Test system: CD4+CD25− T cells (Teff)
Assay: CFSE-based polyclonal suppression assay (aTreg:Teff co-culture 1:4, anti-CD3/anti-CD28 beads)
Format: cell-based, human
Details: for percent inhibition (Treg-mediated suppression of Teff proliferation): presence vs absence of STAT3 inhibitor, 200 ng/ml for one hour
Procedure: The level of Teff suppression was measured using an in vitro assay in which the CD4^+CD25^− T cells of patients with RRMS were co-cultured with in vitro generated Treg from healthy subjects at a Treg to Teff ratio of 1:4 in the presence of anti-CD3/anti-CD28 coated beads and where proliferation is measured using CFSE.
FIGS. 5A, 5B, and 5C relate to a gating strategy for calculation of percent inhibition in a suppression assay and a cytometric analysis of phosphorylated STAT3 and IL-6Rα surface expression. Referring to FIG. 5A, FACS analysis was performed on day 4 by gating on live cells and excluding the CFSE low population (unstained Treg) to determine the percent of the responder cells that have diluted CFSE. The percent inhibition was determined by comparing the percent of proliferating Teff cells cultured alone to the percent of proliferating Teff cells in co-culture with in vitro generated Treg at a ratio 1:4 (Treg:responder cells).
IL-6 mediated Teff resistance can be reversed through the use of a STAT3 inhibitor (Goodman, W. A., et al., J. Immunol. 186(6), 3336-3345 (2011)). […] Suppression assays were performed in the presence of the STAT3 inhibitor using the same source of control Treg for RRMS and control Teff cells. In FIG. 2D, the percent inhibition for controls (n=3) and RRMS (n=3) subjects in the presence or absence of a STAT3 inhibitor, STATTIC V, was compared using a paired Student t-test.
To determine whether IL-6R mediated signaling could alter suppression in the assay system, Teff were cultured from healthy subjects in the presence or absence of IL-6 in the in vitro co-culture system and assessed percent inhibition on day 4. […] Referring to FIG. 11, CFSE-labeled CD4^+CD25^− T cells were cultured at a ratio of 1:4 (control aTreg:control Teff) either in the absence or presence of 50 ng/ml IL-6 and activated with anti-CD3/anti-CD28 coated beads. FACS analysis was performed to determine percent inhibition on day 4 and data is represented by using a paired analysis (Correlation coefficient (r) 0.8934).
CD4^+CD25^− responder cells were isolated as described above via negative selection using Miltenyi microbeads. Allogeneic CD4^+CD25^− T cells were carboxyfluorescein succinimidyl ester (CFSE)-labelled and cultured at a ratio of 1:4 with aTregs and Dynabeads® (M-450 CD3/CD28 T, Dynal Biotech A.S.A./Life Technologies Corporation, Grand Island, N.Y.) at a ratio of 1:5 (beads:responder cells) as described previously (Schneider, A., and Buckner, J. H., Methods Mol. Biol. 707, 233-241 (2011)). […] Data was acquired using CellQuest™ Pro software (BD Bioscience) and analyzed by FlowJo (Tree Star).

Compound | suppression by Treg (percent inhibition) (control aTreg:control Teff 1:4, absence vs presence of 50 ng/ml IL-6, day 4, p=0.02, FIG. 11) | proliferation of Teff (cultures with Teff alone, healthy subjects, absence vs presence of 50 ng/ml IL-6) | percent inhibition (Treg-mediated suppression of Teff proliferation) (RRMS subjects' Teff (n=3), day 4, p<0.01, FIG. 2D) | percent inhibition (Treg-mediated suppression of Teff proliferation) (control subjects' Teff (n=3), day 4, FIG. 2D)
IL-6: recombinant human IL-6 from BD Pharmingen, pro-inflammatory cytokine | significantly decreased | unaffected | – | –
O=[N+]([O-])c1ccc2c(c1)S(=O)(=O)C=C2 [STATTIC V] | – | – | more marked increase in suppression | enhanced suppression
